Test results from patent US20230293526A1, “METHOD FOR TREATING CANCER WITH A REVERSE TRANSCRIPTASE INHIBITOR” (PrimeFour Therapeutics, Inc., priority 2020, published 2023).

Key:
human LINE-1 = experiment: Human LINE-1 (L1) retrotransposition dual-luciferase reporter assay in HeLa cells; assay type: cell-based; conditions: Homo sapiens, HeLa, 72 h, read-out: Human LINE-1 IC50 (Human L1 activity inhibition)
Summary of the method: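 HeLa cells transfected with dual-luciferase L1 plasmid pYX017 (100 ng/well), dosed immediately after with serially diluted compounds (0.2% DMSO final) in triplicate and incubated 72 h at 37 °C. Relative L1 activity = Firefly/Renilla ×10,000; IC50 from logistic non-linear regression.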

cancer cell lines = experiment: Cancer cell proliferation activity of representative nucleosides, CellTiterGlo 72 h (Example 7, Tables 8 and 9); assay type: cell-based; conditions: 72 h
Summary of the method: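 Cancer cell lines seeded and incubated at 37° C overnight, then exposed to nucleosides (final DMSO 0.1%) for 72 h at 37° C with 5% or 10% CO2. Viability read by CellTiterGlo luminescence and normalized to 0.1% DMSO (100%) and 10 μM staurosporine (0%) controls.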

With `CC[C@]1(CO)O[C@@H](n2cnc3c(N)nc(N)nc32)C[C@@H]1O` [compound 25] the IC50 (human LINE-1) was 0.0036 µM, the IC50 (cancer cell lines; 72 h, 5637, bladder) was 3.52 µM and the IC50 (cancer cell lines; CLS439, bladder) was greater than 50 µM. It also gave an IC50 (cancer cell lines; HS729, muscle) of 3.42 µM, an IC50 (cancer cell lines; J82, bladder) greater than 50 µM and an IC50 (cancer cell lines; JAR, placenta) greater than 50 µM. It also gave an IC50 (cancer cell lines; MT3, breast) of 1.62 µM, an IC50 (cancer cell lines; PC3, prostate) of 3.02 µM and an IC50 (cancer cell lines; RD, muscle) of 3.39 µM. For the same molecule, the IC50 (cancer cell lines; T24, bladder) was greater than 50 µM, the IC50 (cancer cell lines; Homo sapiens, 22Rv1, 72 h, 22RV1, prostate) was greater than 50 µM and the IC50 (cancer cell lines; Homo sapiens, 786-0, 72 h, 786O, kidney) was greater than 50 µM. The IC50 (cancer cell lines; Homo sapiens, A204, 72 h, A204, muscle) was 1.58 µM, the IC50 (cancer cell lines; Homo sapiens, A549, 72 h, A549, lung) was 3.25 µM and the IC50 (cancer cell lines; Homo sapiens, A673, 72 h, A673, bone) was greater than 50 µM. For the same molecule, the IC50 (cancer cell lines; Homo sapiens, A2780, 72 h, A2780, ovary) was greater than 50 µM, the IC50 (cancer cell lines; Homo sapiens, A-375, 72 h, A375, skin) was 2.34 µM and the IC50 (cancer cell lines; Homo sapiens, A-431, 72 h, A431, skin) was greater than 50 µM. The IC50 (cancer cell lines; Homo sapiens, ACHN, kidney) was 5.89 µM, the IC50 (cancer cell lines; Homo sapiens, ASPC1, 72 h, ASPC1, pancreas) was 5.31 µM and the IC50 (cancer cell lines; Homo sapiens, BT-20, 72 h, BT20, breast) was greater than 50 µM. It also gave an IC50 (cancer cell lines; Homo sapiens, BXPC-3, 72 h, BXPC3, pancreas) of 3.54 µM, an IC50 (cancer cell lines; Homo sapiens, C-33-A, C33A, endometrial) of 3.7 µM and an IC50 (cancer cell lines; Homo sapiens, CAKI-1, 72 h, CAKI1, kidney) of 5.33 µM. The IC50 (cancer cell lines; Homo sapiens, COLO 205, 72 h, COLO205, colon) was 1.8 µM, the IC50 (cancer cell lines; Homo sapiens, COLO-678, 72 h, COLO678, colon) was greater than 50 µM and the IC50 (cancer cell lines; Homo sapiens, Ca-Ski, CASKI, endometrial) was greater than 50 µM. It also gave an IC50 (cancer cell lines; Homo sapiens, Caco-2, 72 h, CACO2, colon) greater than 50 µM, an IC50 (cancer cell lines; Homo sapiens, Calu-6, 72 h, CALU6, lung) of 6.13 µM and an IC50 (cancer cell lines; Homo sapiens, DLD-1, 72 h, DLD1, colon) greater than 50 µM. The IC50 (cancer cell lines; Homo sapiens, DU-145, 72 h, DU145, prostate) was 6.33 µM, the IC50 (cancer cell lines; Homo sapiens, EFO-21, 72 h, EFO21, ovary) was greater than 50 µM and the IC50 (cancer cell lines; Homo sapiens, EJ-28, 72 h, EJ28, bladder) was greater than 50 µM. The IC50 (cancer cell lines; Homo sapiens, Granta-519, 72 h, GRANTA-519, hematological) was 0.89 µM, the IC50 (cancer cell lines; Homo sapiens, HCT-15, 72 h, HCT15, colon) was greater than 50 µM and the IC50 (cancer cell lines; Homo sapiens, HCT-116, 72 h, HCT116, colon) was 3.2 µM. For the same molecule, the IC50 (cancer cell lines; Homo sapiens, HEK293, 72 h, HEK293, kidney) was 6.09 µM, the IC50 (cancer cell lines; Homo sapiens, HL-60, 72 h, HL-60, hematological) was 3.46 µM and the IC50 (cancer cell lines; Homo sapiens, HT-29, 72 h, HT29, colon) was greater than 50 µM. For the same molecule, the IC50 (cancer cell lines; Homo sapiens, HT-1080, 72 h, HT1080, connective tissue) was 3.72 µM, the IC50 (cancer cell lines; Homo sapiens, HeLa, endometrial) was 3.1 µM and the IC50 (cancer cell lines; Homo sapiens, HepG2, 72 h, HEPG2, liver) was greater than 50 µM. It also gave an IC50 (cancer cell lines; Homo sapiens, Hs-578T, HS578T, breast) greater than 50 µM, an IC50 (cancer cell lines; Homo sapiens, IGROV-1, 72 h, IGROV1, ovary) greater than 50 µM and an IC50 (cancer cell lines; Homo sapiens, IMR-90, 72 h, IMR90, lung) of 3.47 µM. For the same molecule, the IC50 (cancer cell lines; Homo sapiens, JEG-3, 72 h, JEG3, placenta) was greater than 50 µM, the IC50 (cancer cell lines; Homo sapiens, JIMT-1, 72 h, JIMT1, breast) was 5.55 µM and the IC50 (cancer cell lines; Homo sapiens, K562, 72 h, K-562, hematological) was greater than 50 µM. The IC50 (cancer cell lines; Homo sapiens, Kasumi 1, 72 h, KASUMI-1, hematological) was 0.18 µM, the IC50 (cancer cell lines; Homo sapiens, L-363, 72 h, L-363, hematological) was 3.29 µM and the IC50 (cancer cell lines; Homo sapiens, LoVo, colon) was greater than 50 µM. For the same molecule, the IC50 (cancer cell lines; Homo sapiens, MCF7, 72 h, MCF7, breast) was 5.68 µM, the IC50 (cancer cell lines; Homo sapiens, MDA-MB-231, 72 h, MDAMB231, breast) was 2.85 µM and the IC50 (cancer cell lines; Homo sapiens, MDA-MB-435, 72 h, MDAMB435, skin) was greater than 50 µM. It also gave an IC50 (cancer cell lines; Homo sapiens, MDA-MB-436, 72 h, MDAMB436, breast) of 5.23 µM, an IC50 (cancer cell lines; Homo sapiens, MDA-MB-468, 72 h, MDAMB468, breast) greater than 50 µM and an IC50 (cancer cell lines; Homo sapiens, MG-63, 72 h, MG63, bone) of 4.11 µM. It also gave an IC50 (cancer cell lines; Homo sapiens, MHH-ES-1, 72 h, MHHES1, bone) of 3.92 µM, an IC50 (cancer cell lines; Homo sapiens, MIA PaCa-2, 72 h, MIAPACA2, pancreas) greater than 50 µM and an IC50 (cancer cell lines; Homo sapiens, MINO, hematological) of 1.51 µM. The IC50 (cancer cell lines; Homo sapiens, MV4-11, 72 h, MV4-11, hematological) was 2.25 µM, the IC50 (cancer cell lines; Homo sapiens, NCI-H23, 72 h, NCI-H23, lung) was 1.68 µM and the IC50 (cancer cell lines; Homo sapiens, NCI-H82, 72 h, NCIH82, lung) was greater than 50 µM. The IC50 (cancer cell lines; Homo sapiens, NCI-H292, 72 h, NCIH292, lung) was 5.22 µM, the IC50 (cancer cell lines; Homo sapiens, NCI-H460, 72 h, NCIH460, ung) was greater than 50 µM and the IC50 (cancer cell lines; Homo sapiens, OVCAR-3, 72 h, OVCAR3, ovary) was 1.82 µM. It also gave an IC50 (cancer cell lines; Homo sapiens, OVCAR-4, 72 h, OVCAR4, ovary) of 3.27 µM, an IC50 (cancer cell lines; Homo sapiens, PANC-1, 72 h, PANC1, pancreas) greater than 50 µM and an IC50 (cancer cell lines; Homo sapiens, PLC-PRF-5, 72 h, PLCPRF5, liver) greater than 50 µM. For the same molecule, the IC50 (cancer cell lines; Homo sapiens, Panc1005, 72 h, PANC1005, pancreas) was 6.31 µM, the IC50 (cancer cell lines; Homo sapiens, Ramos, hematological) was 1.85 µM and the IC50 (cancer cell lines; Homo sapiens, SAOS-2, 72 h, SAOS2, bone) was 1.73 µM. The IC50 (cancer cell lines; Homo sapiens, SF-268, 72 h, SF268, brain) was greater than 50 µM, the IC50 (cancer cell lines; Homo sapiens, SF-295, 72 h, SF295, brain) was greater than 50 µM and the IC50 (cancer cell lines; Homo sapiens, SK-BR-3, 72 h, SKBR3, breast) was 3.13 µM. It also gave an IC50 (cancer cell lines; Homo sapiens, SK-HEP1, 72 h, SKHEP1, liver) of 4.99 µM, an IC50 (cancer cell lines; Homo sapiens, SK-LMS-1, 72 h, SKLMS1, uterus) greater than 50 µM and an IC50 (cancer cell lines; Homo sapiens, SK-MEL-5, 72 h, SKMEL5, skin) greater than 50 µM. The IC50 (cancer cell lines; Homo sapiens, SK-MEL-28, 72 h, SKMEL28, skin) was 3.1 µM, the IC50 (cancer cell lines; Homo sapiens, SK-N-AS, SKNAS, brain) was 0.75 µM and the IC50 (cancer cell lines; Homo sapiens, SK-N-SH, SKNSH, brain) was 0.6 µM. For the same molecule, the IC50 (cancer cell lines; Homo sapiens, SK-OV-3, 72 h, SKOV3, ovary) was 2.37 µM, the IC50 (cancer cell lines; Homo sapiens, SNB-75, 72 h, SNB75, brain) was greater than 50 µM and the IC50 (cancer cell lines; Homo sapiens, SU-DHL10, 72 h, SU-DHL-10, hematological) was 4.83 µM. The IC50 (cancer cell lines; Homo sapiens, SU-DHL-6, 72 h, SU-DHL-6, hematological) was 6.01 µM, the IC50 (cancer cell lines; Homo sapiens, SW-620, 72 h, SW620, colon) was greater than 50 µM and the IC50 (cancer cell lines; Homo sapiens, TE-671, 72 h, TE671, muscle) was 3.05 µM. The IC50 (cancer cell lines; Homo sapiens, THP-1, 72 h, THP-1, hematological) was 3.23 µM, the IC50 (cancer cell lines; Homo sapiens, U2OS, bone) was greater than 50 µM and the IC50 (cancer cell lines; Homo sapiens, U-87 MG, U87MG, brain) was 5.24 µM. The IC50 (cancer cell lines; Homo sapiens, UMUC3, 72 h, UMUC3, bladder) was greater than 50 µM, the IC50 (cancer cell lines; Homo sapiens, UO-31, 72 h, UO31, kidney) was greater than 50 µM and the IC50 (cancer cell lines; Homo sapiens, WSU-NHL, hematological) was 2.55 µM. For the same molecule, the IC50 (cancer cell lines; NCI-H358M, NCIH358M, lung) was 1.63 µM, the IC50 (cancer cell lines; PBMC, hematological) was greater than 50 µM and the IC50 (cancer cell lines; RD-ES, RDES, bone) was greater than 50 µM.
